Experimental findings from PubChem BioAssay AID2742 (NMMLSC, 2010) are described below.

pEC50: −log10 of the molar value. Activity calls are given as the source filed them.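 How the source made its calls: active means fitted half-maximal concentration for changing background-corrected GFP signal at or below a set limit; inactive means the rest.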

System in one assay: not listed separately
Nature of the assay: TOR pathway reporter MEP2-GFP, concentration series – S. cerevisiae, flow cytometry GFP, MLPCN hits, dose response (AID 2742).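 On GFP fluorescence (kMESF), higher = increase: GFP tag reports level of MEP2 protein as a downstream target of TOR signalling.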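 On pEC50: curve fit on GFP signal minus compound signal in parental s288c strain lacking GFP.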 Particulars: S. cerevisiae MEP2-GFP strain, flow cytometry fluorescence, 3 h; at 33 µM (top of the series).
Consider `CC1=CC(=O)C(C(C)C)=C/C1=N/OS(=O)(=O)c1ccccc1`, for which the GFP fluorescence (kMESF), higher = increase is 3.47 kMESF (inactive). As to `Cc1ccc(N/N=C(\C#N)C(N)=S)c(C)c1`, the GFP fluorescence (kMESF), higher = increase was 4.52 kMESF (inactive). Still for that read-out and setting: to `Cc1ccc(N2C(=O)CC(Sc3ncn[nH]3)C2=O)cc1C` (stereo not given) belongs 3.74 kMESF (inactive). Same read-out and setting: to `CCCCc1ccc(/C=C2/C(=O)ON=C2c2ccccc2)s1` belongs 2.26 kMESF (inactive); to `Cc1cc(NC(=O)c2cccnc2Cl)ccc1NC(=O)c1cc2ccccc2o1`, 3.21 kMESF (inactive); to `CCN(CC)C(=S)SSC(=S)N(CC)CC`, 5.19 kMESF (inactive). Turning to `COc1cccc2c(=O)c(C(=O)NCc3cccs3)c[nH]c12`, the GFP fluorescence (kMESF), higher = increase was 1.57 kMESF (inactive). The same measure, in the same setting: the figure for `N/C(=N\OC(=O)c1ccccc1Cl)c1ccc(Cl)cc1` is 3.91 kMESF (inactive).

In the case of `COc1ccc(N=Nc2ccc(O)c3ncccc23)cc1`, the GFP fluorescence (kMESF), higher = increase was 4.94 kMESF (inactive).

Consider `COc1ccc2c(c1)c(/C=C/c1cc[n+](C)cc1)cn2C`, for which the GFP fluorescence (kMESF), higher = increase is 4.56 kMESF (inactive).

For the molecule `Nc1nc2ncc(CNc3ccc(C(=O)N[C@@H](CCC(=O)O)C(=O)O)cc3)nc2c(=O)[nH]1`, the GFP fluorescence (kMESF), higher = increase was 1.95 kMESF (inactive). The same measure, in the same setting: to `Cc1ccc(/C=C2\SC(=S)N(Cc3ccccc3)C2=O)o1` belongs 9.98 kMESF (inactive); to `Cc1cc(C)nc(S/C=C/C(=O)c2ccccc2)n1`, 3.2 kMESF (inactive).

Regarding `CN(C)c1ccc(N=Cc2nc(-c3ccccc3)oc2OC(=O)c2ccccc2)cc1`, the GFP fluorescence (kMESF), higher = increase was 3.17 kMESF (inactive).

As for `COc1ccc(C=C2C(=O)c3ccccc3C2=O)cc1O`, the GFP fluorescence (kMESF), higher = increase is 2.67 kMESF (inactive). As for `Cc1ccsc1/C=C1\C(=O)NC(=S)N(C)C1=O`, the GFP fluorescence (kMESF), higher = increase was 3.66 kMESF (inactive).

In the case of `Cc1ccccc1OCC(=O)NNC(=S)NC(=O)c1ccco1`, the GFP fluorescence (kMESF), higher = increase was 5.41 kMESF (inactive). On the same count and under the same terms, the figure for `CCC(=O)Nc1ccc(NC(=O)c2cc3ccccc3o2)cc1` is 2.2 kMESF (inactive); for `COc1ccc([C@@]2(C(C)C)ON(c3ccccc3C(F)(F)F)C2=O)cc1` it is 3.06 kMESF (inactive). Take `ClC(Cl)(c1nnnn1-c1ccccc1)c1nnnn1-c1ccccc1`: the GFP fluorescence (kMESF), higher = increase is 4.4 kMESF (inactive). On the same count and under the same terms, the figure for `O=C1C=CC(=O)N1c1ccc(N2CCCCC2)cc1` is 5.69 kMESF (inactive); for `Fc1cccc(Nc2ncnc3c2cnn3-c2ccccc2)c1` it is 2.97 kMESF (inactive). Same read-out and setting: to `COc1ccccc1N=Cc1nc(-c2ccccc2)oc1OC(C)=O` belongs 4.52 kMESF (inactive); to `Cc1cccc(OCCN2CSC(=S)N(C)C2)c1`, 3.71 kMESF (inactive); to `COc1cc(/C=C2\C(=O)ON=C2c2ccccc2)cc(Br)c1O`, 4.31 kMESF (inactive). Same read-out and setting: the figure for `O=C(/C=C/c1ccccc1)NC(=S)NNC(=O)Cc1cccs1` is 2.02 kMESF (inactive); for `Cc1cc(Br)c2c(c1)/C(=C/C(=O)c1cccs1)C(=O)N2` it is 3.78 kMESF (inactive). Regarding `CC(C)[C@@]1(c2ccc(Cl)cc2)ON(c2ccccc2C(F)(F)F)C1=O`, the GFP fluorescence (kMESF), higher = increase is 2.87 kMESF (inactive).

For `Cc1cccc(N=C2NC(=O)/C(=C/C=C/c3ccco3)S2)c1C`, the GFP fluorescence (kMESF), higher = increase is 6.73 kMESF (inactive).

With `O=C(Oc1c(Cl)cc(Cl)c2cccnc12)c1cccc([N+](=O)[O-])c1`, the GFP fluorescence (kMESF), higher = increase is 4.13 kMESF (inactive). Still for that read-out and setting: the figure for `CCCc1cc(N2CCN(c3ccccn3)CC2)n2nc(C)c(-c3ccccc3)c2n1` is 3.11 kMESF (inactive); for `CC(=O)NN1C(=O)/C(=C/c2ccc(Br)o2)SC1=S` it is -0.17 kMESF (inactive). Still for that read-out and setting: the figure for `CC(C)(C)C(=O)C(Cl)C(=O)Nc1ccccc1` (stereo not given) is 4.12 kMESF (inactive). Take `CCOC(=O)CSC1=NC(=O)/C(=C/c2ccc(Br)cc2)S1`: the GFP fluorescence (kMESF), higher = increase is 4.7 kMESF (inactive). Still for that read-out and setting: to `O=c1c(-c2ccc(Cl)cc2)[n+]([O-])c2ccccc2n1O` belongs 24.9 kMESF (inactive); to `O=C(NNC(=S)NC(=O)c1ccco1)c1ccc(F)cc1`, 4.11 kMESF (inactive). Turning to `Cc1c(C(=O)Nc2nc(-c3ccccn3)cs2)oc2ccccc12`, the GFP fluorescence (kMESF), higher = increase is 4.49 kMESF (inactive). Still for that read-out and setting: the figure for `O=C(Nc1cccc(C(F)(F)F)c1)Oc1ccc(Cl)c2cccnc12` is 2.78 kMESF (inactive).

For `On1ccccc1=S`, the GFP fluorescence (kMESF), higher = increase is 3.58 kMESF (inactive).

`O=C1C2C3C=CC(CO)(O3)C2C(=O)N1c1ccccc1-c1ccccc1` (stereo not given): the GFP fluorescence (kMESF), higher = increase was 5.17 kMESF (inactive). As to `O=C(Nc1ccc(Cl)cc1)ON=C1CCCC1`, the GFP fluorescence (kMESF), higher = increase was 4.17 kMESF (inactive). The same measure, in the same setting: the figure for `CC[C@H](C)/C=C(C)/C=C/C1=CC2=C(Cl)C(=O)[C@@](C)(OC(C)=O)C(=O)C2=CO1` is 0.91 kMESF (inactive). Still for that read-out and setting: the figure for `CS(=O)(=O)c1nc(-c2ccccc2)cc(C(F)(F)F)n1` is 7.24 kMESF (inactive). Same read-out and setting: to `CC(C)Cn1c(=O)c(C(=O)Nc2ccncc2)c(O)c2ccccc21` belongs 3.98 kMESF (inactive); to `COc1ccc2c(c1)S/C(=C\C(=O)c1ccncc1)N2C`, 2.67 kMESF (inactive).

For the next assay, the system named is S. cerevisiae MEP2-GFP strain, flow cytometry fluorescence, 3 h. Described as above.
Conditions: not given
For `O=C(Oc1ccnc2cc(Cl)ccc12)N1CCCCCC1`, the negative-log EC50 (pEC50) (in general, the negative decadic logarithm of the EC50, by convention in mol/L) is 5.41. Still for that read-out and setting: the figure for `CC1(C)C[C@H]2C=C(C=O)[C@]3(C=O)C[C@]3(C)[C@H]2C1` is 5.90; for `O=C1NC(=O)N(Cc2ccc(F)cc2)C(=O)/C1=C/c1cccs1` it is 5.52.

Consider `CNC(CC(=O)c1ccc([N+](=O)[O-])cc1)C(Cl)(Cl)Cl` (stereo not given), for which the negative-log EC50 (pEC50) is 5.64. On the same count and under the same terms, the figure for `Cc1ccc(/C=C/C(=O)c2ccccc(=O)c2O)c(C)c1` is 4.86. On the same count and under the same terms, to `O=C1NC(=O)C(=Cc2ccc(-c3ccc(Cl)cc3)o2)C(=O)N1` belongs 5.86; to `CCOC(=O)COc1ccc2ccccc2c1/C=C/[N+](=O)[O-]`, 4.90; to `CNc1nc(N)c([N+](=O)[O-])c(Nc2cccc(F)c2)n1`, 5.16. Still for that read-out and setting: the figure for `Nc1ccc(Br)c2c1C(=O)c1ccccc1C2=O` is 5.98; for `CCCCCCCCn1sccc1=O` it is 5.91.
